We go through two compounds from BindingDB's records for doi:10.7270/Q2PC30S2 (Nmmlsc, 2010).

SMILES strings stand for the structures.

For this experiment, the target named is Ras-related C3 botulinum toxin substrate 1 (Mus musculus, UniProt P63001). As to the kind of experiment: activated Rac1 mutant nucleotide-binding inhibitors – biochemical, multiplex, GST-Rac1 beads, Bodipy-FL-GTP, flow cytometry, dose response (AID 1339).

Consider `CNC(=S)N/N=C1\C(=O)Nc2ccccc21` [1-methyl-3-[(2-oxoindol-3-yl)amino]thiourea], for which the EC50 was found to be 91.6 µM.
Next, `O=C1C([N+](=O)[O-])=Cc2oc3c(c2C1/C=N/Cc1ccccc1)CCCC3` (configuration not stated) [(1Z)-3-nitro-1-[[(phenylmethyl)amino]methylidene]-6,7,8,9-tetrahydrodibenzofuran-2-one]: 5.79 µM.

What is called EC50 is the concentration at which the effect is half-maximal.
